Test results: US11840528B2 (Hoffmann-La Roche Inc., priority 2018, dated 2023)

Legend:
h-GABA-A α5β3γ2 [1] = molecular target: T1, h-GABA-A α5β3γ2 (Homo sapiens, UniProt P18507+P31644); assay: [3H]flumazenil competition binding assay, membranes of HEK293 cells expressing GABAA receptors; conditions: displacement of [3H]-Flumazenil 0.5 nM, HEK293 cells expressing human receptors, mean of two determinations; Table 1
Outline: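 Membranes from HEK293 cells transiently expressing human α5β3γ2 GABAA receptors, in Krebs-tris buffer pH 7.5, competed against [3H]flumazenil for 1 hour at 4° C to equilibrium. Bound radioactivity collected on GF/C filters and counted by liquid scintillation; Ki values are means of two determinations.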

h-GABA-A α5β3γ2 [2] = molecular target: T1, h-GABA-A α5β3γ2; assay: Two-electrode voltage clamp electrophysiology in Xenopus laevis oocytes expressing GABAA receptors, modulation of GABA EC20 current; type: cell-based; design: host or cells: Xenopus laevis oocytes micro-injected with RNA transcripts of the subunits; conditions: Table 1; for Efficacy (GABA) %: % modulation of GABA EC20 = 100*(Fold increase-1); for Fold increase h-GABA-A α5β3γ2 oocyte: test compound at approx. 30 fold its Ki, GABA at EC20
Outline: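 Human α5β3γ2 GABAA receptors were expressed in Xenopus oocytes by RNA injection, with γ2 RNA 5–10-fold higher, and recorded 3–5 days later by two-electrode voltage clamp at −80 mV at room temperature. The test compound, at about 30× its Ki, was co-applied during a second GABA EC20 pulse. Efficacy is the extremum of the point-by-point ratio to the first response, expressed as 100*(Fold increase−1).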

| SMILES | Ki (h-GABA-A α5β3γ2 [1]) [nM] | Efficacy (GABA) % (h-GABA-A α5β3γ2 [2]) [%] | Fold increase h-GABA-A α5β3γ2 oocyte (h-GABA-A α5β3γ2 [2]) |
| --- | --- | --- | --- |
| Cc1cc(-c2noc(C)c2Cn2ncc(N3C[C@@H](C)O[C@@H](C)C3)cc2=O)no1 [Example 62, 5-(cis-2,6-dimethylmorpholin-4-yl)-2-[[5-methyl-3-(5-methylisoxazol-3-yl)isoxazol-4-yl]methyl]pyridazin-3-one] | 0.6 | 88 | 1.88 |
| Cc1cc(-c2noc(C)c2Cn2ncc(N3CCN(C4CC4)CC3)cc2=O)no1 [Example 63, 5-(4-cyclopropylpiperazin-1-yl)-2-[[5-methyl-3-(5-methylisoxazol-3-yl)isoxazol-4-yl]methyl]pyridazin-3-one] | 5.9 | 41 | 1.41 |
| Cc1ccc(-c2noc(C)c2Cn2ncc(N(C)C3CC3)cc2=O)cn1 [Example 64, 5-(cyclopropyl(methyl)amino)-2-((5-methyl-3-(6-methylpyridin-3-yl)isoxazol-4-yl)methyl)pyridazin-3(2H)-one] | 1.8 | 108 | 2.08 |
| Cc1ccc(-c2noc(C)c2Cn2ncc(N(C)C3COC3)cc2=O)cn1 [Example 65, 5-(methyl(oxetan-3-yl)amino)-2-((5-methyl-3-(6-methylpyridin-3-yl)isoxazol-4-yl)methyl)pyridazin-3(2H)-one] | 4.7 | 142 | 2.42 |
| Cc1onc(-c2ccc(C(F)(F)F)nc2)c1Cn1ncc(N2CCN(C3CC3)CC2)cc1=O [Example 66, 5-(4-cyclopropylpiperazin-1-yl)-2-[[5-methyl-3-[6-(trifluoromethyl)-3-pyridyl]isoxazol-4-yl]methyl]pyridazin-3-one] | 26.4 | 121 | 2.21 |
| Cc1ccc(-c2noc(C)c2Cn2ncc(-c3ccccc3)cc2=O)cn1 [Example 67, 2-((5-methyl-3-(6-methylpyridin-3-yl)isoxazol-4-yl)methyl)-5-phenylpyridazin-3(2H)-one] | 10.5 | 107 | 2.07 |
| Cc1ccc(-c2noc(C)c2Cn2ncc(-c3ccc(F)cc3)cc2=O)cn1 [Example 68, 5-(4-fluorophenyl)-2-[[5-methyl-3-(6-methylpyridin-3-yl)-1,2-oxazol-4-yl]methyl]pyridazin-3-one] | 11.9 | 71 | 1.71 |
| Cc1ccc(-c2noc(C)c2Cn2ncc(N3CC4(CCC4)C3)cc2=O)cn1 [Example 69, 5-(2-azaspiro[3.3]heptan-2-yl)-2-[[5-methyl-3-(6-methyl-3-pyridyl)isoxazol-4-yl]methyl]pyridazin-3-one] | 38.9 | 155 | 2.55 |
| Cc1ccc(-c2noc(C)c2Cn2ncc(N(C)CC(C)(C)O)cc2=O)cn1 [Example 70, 5-((2-hydroxy-2-methylpropyl)(methyl)amino)-2-((5-methyl-3-(6-methylpyridin-3-yl)isoxazol-4-yl)methyl)pyridazin-3(2H)-one] | 0.6 | 106 | 2.06 |
| C[C@@H]1CN(c2cnn(Cc3conc3-c3ccc(C(F)(F)F)nc3)c(=O)c2)C[C@H](C)O1 [Example 72, 5-(cis-2,6-dimethylmorpholin-4-yl)-2-[[3-[6-(trifluoromethyl)-3-pyridyl]isoxazol-4-yl]methyl]pyridazin-3-one] | 40.2 | 167 | 2.67 |
| Cc1ccc(-c2noc(C)c2Cn2ncc(N3CCNC4(CC4)C3)cc2=O)cn1 [Example 74, 5-(4,7-diazaspiro[2.5]octan-7-yl)-2-[[5-methyl-3-(6-methyl-3-pyridyl)isoxazol-4-yl]methyl]pyridazin-3-one] | 0.4 | 132 | 2.32 |
| Cc1ccc(-c2noc(C)c2Cn2ncc(N3CCNCC3)cc2=O)cn1 [Example 75, 2-[[5-methyl-3-(6-methyl-3-pyridyl)isoxazol-4-yl]methyl]-5-piperazin-1-yl-pyridazin-3-one] | 3.6 | 104 | 2.04 |
| COc1ccc(-c2cnn(Cc3c(-c4ccc(C)nc4)noc3C)c(=O)c2)cc1 [Example 76, 5-(4-methoxyphenyl)-2-[[5-methyl-3-(6-methylpyridin-3-yl)-1,2-oxazol-4-yl]methyl]pyridazin-3-one] | 6.4 | 71 | 1.71 |
| Cc1ccc(-c2noc(C)c2Cn2ncc(N3CC4(CNC4)C3)cc2=O)cn1 [Example 77, 5-(2,6-diazaspiro[3.3]heptan-2-yl)-2-[[5-methyl-3-(6-methyl-3-pyridyl)isoxazol-4-yl]methyl]pyridazin-3-one] | 30.4 | 149 | 2.49 |
| CNc1cnn(Cc2c(-c3ccc(C)nc3)noc2C)c(=O)c1 [Example 78, 2-((5-methyl-3-(6-methylpyridin-3-yl)isoxazol-4-yl)methyl)-5-(methylamino)pyridazin-3(2H)-one] | 64.6 | 92 | 1.92 |
| CCOc1ccc(-c2cnn(Cc3c(-c4ccc(C)nc4)noc3C)c(=O)c2)cc1 [Example 79, 5-(4-ethoxyphenyl)-2-((5-methyl-3-(6-methylpyridin-3-yl)isoxazol-4-yl)methyl)pyridazin-3(2H)-one] | 16.1 | 111 | 2.11 |
| COc1ccc(-c2cnn(Cc3c(-c4ccc(C)nc4)noc3C)c(=O)c2)cc1F [Example 80, 5-(3-fluoro-4-methoxyphenyl)-2-((5-methyl-3-(6-methylpyridin-3-yl)isoxazol-4-yl)methyl)pyridazin-3(2H)-one] | 8.6 | 133 | 2.33 |
| COc1ccc(-c2cnn(Cc3c(-c4ccc(C)nc4)noc3C)c(=O)c2)cn1 [Example 81, 5-(6-methoxypyridin-3-yl)-2-((5-methyl-3-(6-methylpyridin-3-yl)isoxazol-4-yl)methyl)pyridazin-3(2H)-one] | 24.2 | 123 | 2.23 |
| Cc1ccc(-c2noc(C)c2Cn2ncc(N3CC4(CN(C)C4)C3)cc2=O)cn1 [Example 82, 5-(6-methyl-2,6-diazaspiro[3.3]heptan-2-yl)-2-[[5-methyl-3-(6-methyl-3-pyridyl)isoxazol-4-yl]methyl]pyridazin-3-one] | 32.8 | 245 | 3.45 |
| Cc1ccc(-c2noc(C)c2Cn2ncc(-c3ccc(C(F)(F)F)cc3)cc2=O)cn1 [Example 83] | 17.2 | 50 | 1.5 |
| COc1ccc(-c2cnn(Cc3c(-c4ccc(C)nc4)noc3C)c(=O)c2)nc1 [Example 84, 5-(5-methoxypyridin-2-yl)-2-((5-methyl-3-(6-methylpyridin-3-yl)isoxazol-4-yl)methyl)pyridazin-3(2H)-one] | 85 | 89 | 1.89 |
| Cc1ccc(-c2noc(C)c2Cn2ncc(N3CC(C#N)C3)cc2=O)cn1 [Example 85, 1-[1-[[5-methyl-3-(6-methyl-3-pyridyl)isoxazol-4-yl]methyl]-6-oxo-pyridazin-4-yl]azetidine-3-carbonitrile] | 18.1 | 134 | 2.34 |
| Cc1onc(-c2ccc(Cl)cn2)c1Cn1ncc(N2CC3(C2)CN(C2CC2)C3)cc1=O [Example 86, 2-[[3-(5-chloro-2-pyridyl)-5-methyl-isoxazol-4-yl]methyl]-5-(2-cyclopropyl-2,6-diazaspiro[3.3]heptan-6-yl)pyridazin-3-one] | 11.9 | 87 | 1.87 |
| Cc1cc(-c2noc(C)c2Cn2ncc(N3CC4(C3)CN(C3CC3)C4)cc2=O)no1 [Example 87, 5-(2-cyclopropyl-2,6-diazaspiro[3.3]heptan-6-yl)-2-[[5-methyl-3-(5-methylisoxazol-3-yl)isoxazol-4-yl]methyl]pyridazin-3-one] | 39 | 105 | 2.05 |
| Cc1ccc(-c2noc(C)c2Cn2ncc(NCC3CCOCC3)cc2=O)cn1 [Example 88, 2-((5-methyl-3-(6-methylpyridin-3-yl)isoxazol-4-yl)methyl)-5-(((tetrahydro-2H-pyran-4-yl)methyl)amino)pyridazin-3(2H)-one] | 33.4 | 103 | 2.03 |
| Cc1ccc(-c2noc(C)c2Cn2ncc(N3CCO[C@@H](C)C3)cc2=O)cn1 [Example 89, 2-[[5-methyl-3-(6-methyl-3-pyridyl)isoxazol-4-yl]methyl]-5-[(2S)-2-methylmorpholin-4-yl]pyridazin-3-one] | 1.4 | 189 | 2.89 |
